Assay [1] concerns the target T1, Methionyl-tRNA synthetase, putative (Trypanosoma brucei brucei, UniProt Q38C91).
T1 sequence (Q38C91 whole entry): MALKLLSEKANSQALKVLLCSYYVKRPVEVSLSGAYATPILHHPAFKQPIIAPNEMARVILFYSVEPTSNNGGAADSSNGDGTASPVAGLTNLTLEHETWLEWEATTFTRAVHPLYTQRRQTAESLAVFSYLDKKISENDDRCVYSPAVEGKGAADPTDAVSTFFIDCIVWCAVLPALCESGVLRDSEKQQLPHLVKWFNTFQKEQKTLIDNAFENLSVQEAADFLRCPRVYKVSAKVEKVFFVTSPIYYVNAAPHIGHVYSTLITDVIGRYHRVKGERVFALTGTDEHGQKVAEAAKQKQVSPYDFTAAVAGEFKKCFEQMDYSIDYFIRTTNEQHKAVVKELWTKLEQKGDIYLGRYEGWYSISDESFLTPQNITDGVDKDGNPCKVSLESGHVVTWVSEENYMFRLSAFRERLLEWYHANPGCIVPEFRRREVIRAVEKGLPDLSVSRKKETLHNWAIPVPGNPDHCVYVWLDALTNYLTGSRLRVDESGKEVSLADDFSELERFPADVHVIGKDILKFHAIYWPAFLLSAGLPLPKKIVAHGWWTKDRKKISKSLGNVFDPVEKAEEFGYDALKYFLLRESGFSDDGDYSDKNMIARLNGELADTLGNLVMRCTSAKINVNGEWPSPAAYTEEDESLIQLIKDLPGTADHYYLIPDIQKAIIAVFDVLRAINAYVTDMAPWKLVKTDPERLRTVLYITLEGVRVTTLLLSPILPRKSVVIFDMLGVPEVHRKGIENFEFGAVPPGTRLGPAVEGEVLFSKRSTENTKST
The class given is functional, Trypanosoma brucei brucei strain 927/4 GUTat10.1.

Assay [2] can be described thus: Late stage counterscreen for inhibitors of Trypanosoma brucei methionyl tRNA synthetase (MetRS): Luminescence-based cell-based high throughput dose response assay to identify compounds that are cytotoxic to Jurkat human T lymphocyte cells. The class given is functional. In general terms: The purpose of a counterscreen is to sort out artefacts and off-target activity.

For assay [3], the target named is T1, Methionyl-tRNA synthetase, putative. The class given is functional, Trypanosoma brucei brucei strain 927/4 GUTat10.1. The source holds these as a separate data set.
A short description of assay [4]: Counterscreen for inhibitors of Trypanosoma brucei methionyl tRNA synthetase (MetRS): Luminescence-based cell-based high throughput dose response assay to identify compounds that are cytotoxic to Jurkat human T lymphocyte cells. The class given is functional.
Assay [5] can be described thus: cytotoxicity toward HCT116 cells – cell-based, CellTiter-Glo luminescence, IC50, dose response (AID 1117332). The class given is functional. The settings on record: HCT-116.
A short description of assay [6]: RKO cell viability reduction, dose response, CellTiter-Glo luminescence (AID 1117322). The class given is functional. (ATP-based viability assays read luminescence as a measure of living cells.)
The nature of assay [7]: CellTiter-Glo luminescence survival assay, SW480 colon tumor line, concentration-response curve, half-maximal inhibitory concentration (AID 1117338). The class given is functional.
A short description of assay [8]: cytotoxicity toward HT-29 cells – cell-based, CellTiter-Glo luminescence, IC50, dose response (AID 1117330). The class given is functional.
Assay [9] can be described thus: Reduced DLD-1 viability, concentration-response, CellTiter-Glo luminescence (AID 1117352). The class given is functional.
A short description of assay [10]: rise of 2N DNA cells, HeLa – IC50, dose response (AID 1117349). The class given is functional, cell-based.
Assay [11] is described as follows: cytotoxicity toward Colo320 cells – cell-based, CellTiter-Glo luminescence, IC50, dose response (AID 1117334). The class given is functional. The note with it: COLO 320.
The nature of assay [12]: SNU-C1 cell viability reduction, dose response, CellTiter-Glo luminescence (AID 1117323). The class given is functional, cell-based.
A short description of assay [13]: rise of 4N DNA cells, HeLa – IC50, dose response (AID 1117351). The class given is functional, cell-based.
The nature of assay [14]: HCT116 cell viability decrease, GSK3B pretreatment – CellTiter-Glo, IC50, dose response (AID 1117339). The note with it: HCT-116. The class given is functional.
Assay [15] concerns the target Bifunctional protein GlmU (Mycobacterium tuberculosis, UniProt P9WMN3). The experiment in a line: Inhibitors of Mycobacterial Glucosamine-1-phosphate acetyl transferase (GlmU). Secondary screen. On the set-up: species or system Mycobacterium tuberculosis H37Rv.
Assay [16] concerns the target T2, Carboxy-terminal domain RNA polymerase II polypeptide A small phosphatase 1 (Homo sapiens, UniProt Q9GZU7).
T2 sequence (Q9GZU7 whole entry): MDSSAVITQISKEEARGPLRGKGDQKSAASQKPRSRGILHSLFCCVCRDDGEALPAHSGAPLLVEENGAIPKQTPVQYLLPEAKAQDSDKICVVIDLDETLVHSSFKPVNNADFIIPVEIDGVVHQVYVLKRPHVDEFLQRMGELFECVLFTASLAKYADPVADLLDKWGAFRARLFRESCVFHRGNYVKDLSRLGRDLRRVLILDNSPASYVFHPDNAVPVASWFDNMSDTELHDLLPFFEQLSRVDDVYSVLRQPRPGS
The experiment in a line: CTDSP1 inhibitors, concentration-response, biochemical, absorbance readout, ultra-high-throughput screen actives (AID 540297). The class given is functional.

Assay [17] can be described thus: blockade of melanocortin 4 receptor signaling – cell-based, plate reader, cherry pick, counter-screen for LGR2 antagonist project, dose response (AID 743444).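 Further: transfected HEK 293 cells stimulated with alpha-MSH peptide; potency of inhibitors of the alpha-MSH evoked signal.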 The class given is functional.
Assay [18] in a line: toxicity toward HepG2 liver cells – cell-based, plate reader, cherry-pick, antagonist series, cytotoxicity control, dose response (AID 743416). The class given is functional.
Assay [19] can be described thus: viability loss in HEK293 cells – cell-based, plate reader, cherry-picked samples, cytotoxicity control, dose response (AID 743446). The class given is functional.
Assay [20] in a line: reduced cellular PGC1a acetyl-lysine signal – cell-based, cherry-picked samples, dose response (AID 720514).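 Further: potency may reflect raised or lowered acetylation signal.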 The class given is functional.
Assay [21] can be described thus: blockers of bursicon-stimulated LGR2 cAMP reporter – cell-based, HEK293, CRE-luciferase reporter, cherry pick, set 2, dose response (AID 743343).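 Further: transfected cells were stimulated with diluted bursicon conditioned medium after compound addition.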 The class given is functional. On the technique in general: Reporter assays use an easily measured gene product as a stand-in for the process of interest.
The next assay has as its target Paired box protein Pax-8 (Homo sapiens, UniProt Q06710). Briefly: PAX8 transcriptional activity inhibition in RMG-I – RMG-I cells, luciferase, cherry-pick, dose response (AID 687027).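 Further: luciferase reporter driven by Pax8 target thyroperoxidase promoter measured by SteadyGlo luminescence.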 The class given is functional, cell-based.
The nature of assay [22]: general cell-killing toxicity readout – plate reader, dry powder samples, cytotoxicity control for PAX8 inhibitor project, dose response (AID 743021). The class given is functional, cell-based.
Assay [23] in a line: A549 cell cytotoxicity, dose response, cytotoxicity control, plate reader, cherry-pick, antagonist series (AID 743412). The class given is functional, cell-based.
Another assay has as its target Kallikrein-7 (Homo sapiens, UniProt P49862). The experiment in a line: Fluorescence Intensity-based biochemical primary high throughput dose response assay to identify activators of kallikrein-7 (K7) zymogen.
In assay [24] the target is T3, Beta-lactamase (Pseudomonas aeruginosa, UniProt Q79MP6). The experiment in a line: inhibition of IMP-1 beta-lactamase activity – biochemical, epi-absorbance, selectivity assay for VIM-2 inhibitor project, dose response (AID 1920).
T3 sequence (Q79MP6 whole entry): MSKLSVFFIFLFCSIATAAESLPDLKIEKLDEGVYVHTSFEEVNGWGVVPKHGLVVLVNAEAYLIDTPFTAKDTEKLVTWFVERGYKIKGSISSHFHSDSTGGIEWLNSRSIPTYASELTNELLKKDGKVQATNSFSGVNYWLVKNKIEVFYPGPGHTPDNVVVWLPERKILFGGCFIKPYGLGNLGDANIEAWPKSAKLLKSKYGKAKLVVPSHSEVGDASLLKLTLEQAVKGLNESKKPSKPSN
The target in assay [25] is T3, Beta-lactamase. The experiment in a line: […] counterscreen for selective VIM-2 inhibitors: dose response biochemical high throughput screening assay to identify inhibitors of IMP-1 metallo-beta-lactamase.
In assay [26] the target is Beta-lactamase (Salmonella choleraesuis (strain SC-B67), UniProt Q5J463). Briefly: Epi-absorbance-based counterscreen for selective VIM-2 inhibitors: dose response biochemical high throughput screening assay to identify inhibitors of TEM-1 serine-beta-lactamase.
Sequence of Beta-lactamase (Salmonella choleraesuis (strain SC-B67), UniProt Q5J463) (Q5J463 whole entry): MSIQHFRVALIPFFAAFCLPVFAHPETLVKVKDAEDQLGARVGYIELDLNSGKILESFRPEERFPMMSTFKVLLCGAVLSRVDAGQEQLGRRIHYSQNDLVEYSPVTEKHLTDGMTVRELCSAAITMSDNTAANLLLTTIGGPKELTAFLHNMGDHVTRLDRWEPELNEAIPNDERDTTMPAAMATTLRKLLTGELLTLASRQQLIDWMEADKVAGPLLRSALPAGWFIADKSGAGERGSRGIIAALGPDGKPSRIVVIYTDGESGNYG
The nature of assay [27]: viability inhibitors of stage V gametocytes – luminescence, dose response (AID 1117278).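 Further: gametocytes exposed to compound for 24 hours.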 The class given is functional, cell-based.
Assay [28] can be described thus: viability loss in human Jurkat cells – cell-based, luminescence, cytotoxicity control for P. falciparum gametocyte viability project, dose response (AID 1117277).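 Further: potency reflects loss of cellular ATP meaning fewer viable cells.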 The class given is functional.
Assay [29] in a line: growth inhibition of PfATP4-mutant resistant parasites – NITD609-resistant line, SYBR Green, dry powder, dose response (AID 1159571).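 Further: parasites synchronized at ring stage by sorbitol before testing.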 The class given is functional, cell-based.
Assay [30] is described as follows: growth inhibition of yeast DHODH-expressing 3D7 parasites – SYBR Green, dry powder samples, dose response (AID 1159570).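 Further: parasite growth measured after 72 hours of compound exposure.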 The class given is functional, cell-based.
Assay [31] is described as follows: Dd2 malaria parasite growth inhibition potency – SYBR Green, dry powder samples, dose response (AID 1159566).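 Further: potency for growth inhibition with lower SYBR green DNA signal.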 The class given is functional, cell-based.
A short description of assay [32]: toxicity to human HepG2 hepatoma cells – cell-based, plate reader, dry powder samples, cytotoxicity control, dose response (AID 1159569).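 Further: inhibitor potency with signal falling toward the positive control level.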 The class given is functional.
Assay [33] can be described thus: P. falciparum Dd2 growth inhibitors, dose response, SYBR Green, cherry-picked samples (AID 1159567). The class given is functional, cell-based.

Active and inactive are the calls of the source.

Sequence of Kallikrein-7 (P49862 whole entry): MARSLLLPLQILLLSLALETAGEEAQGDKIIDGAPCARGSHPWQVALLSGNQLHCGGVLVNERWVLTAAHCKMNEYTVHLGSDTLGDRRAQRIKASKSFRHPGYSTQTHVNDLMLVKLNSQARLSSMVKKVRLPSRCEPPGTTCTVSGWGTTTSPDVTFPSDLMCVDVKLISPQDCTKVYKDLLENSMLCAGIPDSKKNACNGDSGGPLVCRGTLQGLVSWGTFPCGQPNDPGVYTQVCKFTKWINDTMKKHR
Sequence of Bifunctional protein GlmU (P9WMN3 whole entry, the tested form may be a part): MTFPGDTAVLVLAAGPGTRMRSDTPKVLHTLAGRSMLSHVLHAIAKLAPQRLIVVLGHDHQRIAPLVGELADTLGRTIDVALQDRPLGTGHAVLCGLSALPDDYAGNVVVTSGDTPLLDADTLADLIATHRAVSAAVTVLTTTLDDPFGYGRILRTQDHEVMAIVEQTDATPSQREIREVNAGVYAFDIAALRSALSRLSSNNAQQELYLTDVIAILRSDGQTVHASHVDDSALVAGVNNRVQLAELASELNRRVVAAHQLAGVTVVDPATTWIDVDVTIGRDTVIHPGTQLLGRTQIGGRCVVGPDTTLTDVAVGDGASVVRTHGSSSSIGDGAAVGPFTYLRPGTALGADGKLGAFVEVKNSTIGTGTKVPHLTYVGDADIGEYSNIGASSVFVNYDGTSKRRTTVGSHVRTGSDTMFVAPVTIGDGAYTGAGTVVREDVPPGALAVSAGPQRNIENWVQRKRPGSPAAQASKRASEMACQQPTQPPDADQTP
Sequence of Paired box protein Pax-8 (Q06710 whole entry): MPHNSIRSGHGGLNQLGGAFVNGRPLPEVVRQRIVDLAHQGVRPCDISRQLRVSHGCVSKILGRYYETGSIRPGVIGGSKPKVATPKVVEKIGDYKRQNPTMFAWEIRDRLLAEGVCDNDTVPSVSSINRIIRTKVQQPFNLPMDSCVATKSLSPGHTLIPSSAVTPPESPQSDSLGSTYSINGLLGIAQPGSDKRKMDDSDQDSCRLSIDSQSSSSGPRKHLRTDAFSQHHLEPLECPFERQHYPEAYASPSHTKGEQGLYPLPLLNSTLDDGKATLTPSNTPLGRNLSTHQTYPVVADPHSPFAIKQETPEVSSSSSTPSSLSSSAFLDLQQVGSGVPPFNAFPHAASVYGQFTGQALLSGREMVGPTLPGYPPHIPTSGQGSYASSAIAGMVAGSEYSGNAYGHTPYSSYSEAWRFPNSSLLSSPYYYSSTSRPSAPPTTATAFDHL

Usually IC50 stands for the concentration needed to halve the response being measured. `Brc1c[nH]c2nc(SCc3nc4ccccc4[nH]3)nc-2c1`: the half-maximal inhibitory concentration (IC50) in assay [1] was 7.89 µM (active); in assay [2], > 83.3 µM (inactive); in [3], 4.23 µM (active); in assay [4], 83.3 µM (inactive).

As to `CN1CCC(Nc2ncc3ncnc(Nc4ccc(F)c(Cl)c4)c3n2)CC1`, the IC50 in assay [5] was > 20 µM (inactive); in assay [6], 3.17 µM (active); in [7], 2.35 µM (active); in assay [8] it was 4 µM (active); in assay [9] it was 2.29 µM (active); in assay [10], > 10 µM (inactive). The IC50 is 11.7 µM (inactive) in assay [11], 12 µM (inactive) in assay [12], > 10 µM (inactive) in [13] and 3.38 µM (active) in assay [14].

Regarding `CC1C=CC(C)C(C(=O)O)C1C(=O)O` (stereo unspecified), the concentration for half-maximal inhibition (IC50) in [15] was 144 µM (active); in [16] it was 4.36 µM (active).

One may read the AC50 as the concentration at which the activity in the assay is half-maximal. On to `COc1ccc(-n2nnnc2C(CCc2ccccc2)N2CCC(n3c(O)nc4ccccc43)CC2)cc1` (stereo unspecified), for which the AC50 in assay [17] is 9.43 µM (active); in assay [18], > 52 µM (inactive); in [19], 10.1 µM (active); in [20], 21.4 µM (active); in assay [21] it was 11.3 µM (active); at Paired box protein Pax-8, 7.54 µM (active). Besides, the half-maximal activity concentration (AC50) in assay [22] is 24.5 µM (active); in [23] it was 14.7 µM (active).

A word on the EC50: it is the concentration giving half of the maximal effect. `O=C(O)CCN1c2cccc3cccc(c23)S1(=O)=O`: the EC50 at Kallikrein-7 is > 7.72 µM (active).

Turning to `Cc1cc(=O)oc2c3c(cc(OCC(=O)N[C@@H](Cc4ccccc4)C(=O)O)c12)OC(C)(C)CC3`, the IC50 on Beta-lactamase [24], at Beta-lactamase [25] and at Beta-lactamase [26] was > 59.6 µM (inactive) in each case. On Kallikrein-7, the EC50 was 49 µM (inactive).

As for `Cn1c(CCNC(=O)C2CCCCC2)nc2cc(NC(=O)c3cccs3)ccc21`, the IC50 in assay [27] was > 109 µM (inactive); in assay [28], > 83.3 µM (inactive).

Regarding `C[C@@H]1CN([C@@H](C)CO)C(=O)c2cccc(NC(=O)c3nc4ccccc4s3)c2O[C@@H]1CN(C)C(=O)Nc1cccc2ccccc12`, the AC50 in assay [29] was 2 µM (active); in [30] it was 2.73 µM (active); in assay [31], 2.51 µM (active); in assay [32], 71.7 µM (active); in [33], 2.98 µM (active).

For the origin of these results see ChEMBL document CHEMBL1201862, “PubChem BioAssay data set” (2004).
